Measurements: patent publication EP1077981B1, “NOVEL CEPHALOSPORIN COMPOUNDS, PROCESSES FOR PREPARATION THEREOF AND ANTIMICROBIAL COMPOSITIONS CONTAINING THE SAME” (LG CHEMICAL LIMITED, priority 1998, dated 1999)
Values after ≈ are worked out from the molar mass of the structure shown. Read-outs that look alike come from different tables or passages of the source.

Columns and labels:
Test in all cases: MIC against standard strains (agar dilution)
Assay type in all cases: cell-based
[1] = system: Morganella morganii 1375E
Description: (§1) Test example 1: Measurement of Minimum Inhibitory Concentration (MIC)
(§2) Specifically, test compounds were diluted by 2-fold dilution method and dispersed in Mueller-Hinton agar medium and then, 2µℓ of test strains were inoculated at a concentration of 10^7 cfu(colony forming unit)/mℓ on the medium and incubated for 20 hours at 37°C.

Escherichia coli 3190Y = settings: Escherichia coli, 3190Y, 20 h
Description: as §1, §2

[2] = system: Klebsiella pneumoniae 2011E
Description: as §1, §2

[3] = system: Escherichia coli TEM3 3455E; settings: TEM33455E, 20 h
Description: as §1, §2

Staphylococcus aureus 77 = system: Staphylococcus aureus 77
Description: as §1, §2

[4] = system: Enterococcus faecalis 29212
Description: as §1, §2

[5] = system: Pseudomonas aeruginosa 6065Y
Description: as §1, §2

[6] = system: Escherichia coli TEM9 2639E; settings: TEM92639E
Description: as §1, §2

Escherichia coli 851E = settings: Escherichia coli, 851E, 20 h
Description: as §1, §2

[7] = system: Enterobacter cloacae IND+VE 1194E
Description: as §1, §2

[8] = system: Moraxella catarrhalis 25240
Description: as §1, §2

[9] = system: Serratia marcescens 1826E
Description: as §1, §2

Escherichia coli 10536 = system: Escherichia coli 10536
Description: as §1, §2

[10] = system: Klebsiella aerogenes K1+ 1082E
Description: as §1, §2

[11] = system: Staphylococcus aureus giorgio
Description: as §1, §2

Proteus vulgaris 6059 = system: Proteus vulgaris 6059
Description: as §1, §2

Enterobacter cloacae P99 = system: Enterobacter cloacae P99
Description: as §1, §2

[12] = system: Citrobacter diversus 2046E; settings: Citrobacter koseri
Description: as §1, §2

[13] = system: Escherichia coli TEM1 1193E; settings: TEM11193E, 20 h
Description: as §1, §2

[14] = system: Salmonella typhimurium 14028; settings: Salmonella enterica
Description: as §1, §2

[15] = system: Staphylococcus aureus 6538p
Description: as §1, §2

[16] = system: Klebsiella aerogenes SHV-1 1976E; settings: Klebsiella aerogenes, 20 h
Description: as §1, §2

[17] = system: Citrobacter freundii 8090
Description: as §1, §2

[18] = system: Moraxella catarrhalis C2431
Description: as §1, §2

[19] = system: Staphylococcus epidermidi 887E
Description: as §1, §2

[20] = system: Staphylococcus aureus 241
Description: as §1, §2

[21] = system: Acinetobacter calcoaceticu 15473
Description: as §1, §2

[22] = system: Pseudomonas aeruginosa 1912E
Description: as §1, §2

`Nc1cc(SC2=C(C(=O)O)N3C(=O)C(NC(=O)/C(=N\O)c4csc(N)n4)C3SC2)nc(N)n1` (centres unmarked) [compound 26, 7-[(Z)-2-(2-amino-thiazol-4-yl)-2-hydroxyimino-acetylamino]-3-(2,6-diamino-pyrimidin-4-ylsulfanyl)-8-oxo-5-thia-1-azabicyclo[4,2,0]oct-2-ene-2-carboxylic acid] gave an MIC ([1]; Morganella morganii 1375E, Mueller-Hinton agar, 20 hours at 37°C, read-out: MIC) of 0.25 µg/mL (≈ 0.491 µM), an MIC (Escherichia coli 3190Y) of 0.031 µg/mL (≈ 0.0608 µM) and an MIC ([2]; Klebsiella pneumoniae 2011E, Mueller-Hinton agar, 20 hours at 37°C, read-out: MIC) of 1 µg/mL (≈ 1.96 µM). The MIC [3] was 64 µg/mL (≈ 126 µM), the MIC (Staphylococcus aureus 77; Staphylococcus aureus 77, Mueller-Hinton agar, 20 hours at 37°C, read-out: MIC) was 2 µg/mL (≈ 3.92 µM) and the MIC ([4]; Enterococcus faecalis 29212, Mueller-Hinton agar, 20 hours at 37°C, read-out: MIC) was 16 µg/mL (≈ 31.4 µM). The MIC ([5]; Pseudomonas aeruginosa 6065Y, Mueller-Hinton agar, 20 hours at 37°C, read-out: MIC) was greater than 64 µg/mL, the MIC ([6]; Escherichia coli TEM9 2639E, Mueller-Hinton agar, 20 hours at 37°C, read-out: MIC) was 32 µg/mL (≈ 62.8 µM) and the MIC (Escherichia coli 851E) was 0.063 µg/mL (≈ 0.124 µM). For the same compound, the MIC ([7]; Enterobacter cloacae IND+VE 1194E, Mueller-Hinton agar, 20 hours at 37°C, read-out: MIC) was greater than 64 µg/mL, the MIC ([8]; Moraxella catarrhalis 25240, Mueller-Hinton agar, 20 hours at 37°C, read-out: MIC) was no more than 0.008 µg/mL and the MIC ([9]; Serratia marcescens 1826E, Mueller-Hinton agar, 20 hours at 37°C, read-out: MIC) was 64 µg/mL (≈ 126 µM). It also gave an MIC (Escherichia coli 10536; Escherichia coli 10536, Mueller-Hinton agar, 20 hours at 37°C, read-out: MIC) of 0.063 µg/mL (≈ 0.124 µM), an MIC ([10]; Klebsiella aerogenes K1+ 1082E, Mueller-Hinton agar, 20 hours at 37°C, read-out: MIC) greater than 64 µg/mL and an MIC ([11]; Staphylococcus aureus giorgio, Mueller-Hinton agar, 20 hours at 37°C, read-out: MIC) of 0.25 µg/mL (≈ 0.491 µM). For the same compound, the MIC (Proteus vulgaris 6059; Proteus vulgaris 6059, Mueller-Hinton agar, 20 hours at 37°C, read-out: MIC) was 0.031 µg/mL (≈ 0.0608 µM), the MIC (Enterobacter cloacae P99; Enterobacter cloacae P99, Mueller-Hinton agar, 20 hours at 37°C, read-out: MIC) was greater than 64 µg/mL and the MIC ([12]; Citrobacter diversus 2046E, Mueller-Hinton agar, 20 hours at 37°C, read-out: MIC) was greater than 64 µg/mL. It also gave an MIC [13] of 0.5 µg/mL (≈ 0.981 µM), an MIC ([14]; Salmonella typhimurium 14028, Mueller-Hinton agar, 20 hours at 37°C, read-out: MIC) of 0.13 µg/mL (≈ 0.255 µM) and an MIC ([15]; Staphylococcus aureus 6538p, Mueller-Hinton agar, 20 hours at 37°C, read-out: MIC) of 0.5 µg/mL (≈ 0.981 µM). For the same compound, the MIC [16] was 0.5 µg/mL (≈ 0.981 µM), the MIC ([17]; Citrobacter freundii 8090, Mueller-Hinton agar, 20 hours at 37°C, read-out: MIC) was 8 µg/mL (≈ 15.7 µM) and the MIC ([18]; Moraxella catarrhalis C2431, Mueller-Hinton agar, 20 hours at 37°C, read-out: MIC) was 0.016 µg/mL (≈ 0.0314 µM). For the same compound, the MIC ([19]; Staphylococcus epidermidi 887E, Mueller-Hinton agar, 20 hours at 37°C, read-out: MIC) was 2 µg/mL (≈ 3.92 µM), the MIC ([20]; Staphylococcus aureus 241, Mueller-Hinton agar, 20 hours at 37°C, read-out: MIC) was 8 µg/mL (≈ 15.7 µM) and the MIC ([21]; Acinetobacter calcoaceticu 15473, Mueller-Hinton agar, 20 hours at 37°C, read-out: MIC) was 32 µg/mL (≈ 62.8 µM). For the same compound, the MIC ([22]; Pseudomonas aeruginosa 1912E, Mueller-Hinton agar, 20 hours at 37°C, read-out: MIC) was greater than 64 µg/mL.
`CCO/N=C(\C(=O)NC1C(=O)N2C(C(=O)O)=C(Sc3cc(N)nc(N)n3)CSC12)c1nsc(N)n1` (centres unmarked) [compound 29] was tested, and the MIC ([1]; Morganella morganii, 1375E, 20 h) was 0.25 µg/mL (≈ 0.464 µM), the MIC (Escherichia coli 3190Y) was 0.063 µg/mL (≈ 0.117 µM) and the MIC ([2]; Klebsiella pneumoniae, 2011E, 20 h) was 2 µg/mL (≈ 3.71 µM). For the same compound, the MIC [3] was 32 µg/mL (≈ 59.4 µM), the MIC (Staphylococcus aureus 77; Staphylococcus aureus, 77, 20 h) was 4 µg/mL (≈ 7.43 µM) and the MIC ([4]; Enterococcus faecalis, 29212, 20 h) was 64 µg/mL (≈ 119 µM). It also gave an MIC ([5]; Pseudomonas aeruginosa, 6065Y, 20 h) greater than 64 µg/mL, an MIC ([6]; Escherichia coli, 20 h) of 64 µg/mL (≈ 119 µM) and an MIC (Escherichia coli 851E) of 0.25 µg/mL (≈ 0.464 µM). For the same compound, the MIC ([7]; Enterobacter cloacae, 20 h) was greater than 64 µg/mL, the MIC ([8]; Moraxella catarrhalis, 25240, 20 h) was no more than 0.008 µg/mL and the MIC ([9]; Serratia marcescens, 1826E, 20 h) was 4 µg/mL (≈ 7.43 µM). For the same compound, the MIC (Escherichia coli 10536; Escherichia coli, 10536, 20 h) was 0.13 µg/mL (≈ 0.241 µM), the MIC ([10]; Klebsiella aerogenes, 20 h) was greater than 64 µg/mL and the MIC ([11]; Staphylococcus aureus, 20 h) was 1 µg/mL (≈ 1.86 µM). The MIC (Proteus vulgaris 6059; Proteus vulgaris, 6059, 20 h) was 0.063 µg/mL (≈ 0.117 µM), the MIC (Enterobacter cloacae P99; Enterobacter cloacae, P99, 20 h) was greater than 64 µg/mL and the MIC ([12]; 2046E, 20 h) was greater than 64 µg/mL. The MIC [13] was 1 µg/mL (≈ 1.86 µM), the MIC ([14]; TYPHIMURIUM, 20 h) was 1 µg/mL (≈ 1.86 µM) and the MIC ([15]; Staphylococcus aureus, 6538P, 20 h) was 2 µg/mL (≈ 3.71 µM). The MIC [16] was 1 µg/mL (≈ 1.86 µM), the MIC ([17]; Citrobacter freundii, 8090, 20 h) was 2 µg/mL (≈ 3.71 µM) and the MIC ([18]; Moraxella catarrhalis, C2431, 20 h) was no more than 0.008 µg/mL. It also gave an MIC ([19]; Staphylococcus, 887E, 20 h) of 8 µg/mL (≈ 14.9 µM), an MIC ([20]; Staphylococcus aureus, 241, 20 h) of 8 µg/mL (≈ 14.9 µM) and an MIC ([21]; Acinetobacter, 15473, 20 h) of 32 µg/mL (≈ 59.4 µM). For the same compound, the MIC ([22]; Pseudomonas aeruginosa, 1912E, 20 h) was 8 µg/mL (≈ 14.9 µM).
